For 41 compounds, IC50 results are on record in US8093231B2, “Sulfonylethyl phosphorodiamidates” (Telik, Inc., priority 2004, dated 2012).

Holding throughout (format): cell-based, human
For one assay, the system named is MX-1 (breast carcinoma). The assay can be described thus: Cytotoxicity/growth inhibition assay, MX-1. Particulars: MX-1 cells, 3 days culture, CellTiter-Glo, 0.1-200 μM tested; read-out: IC50 (MX-1). The gist of the method: (§1)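 Test compounds in DMSO (0.1–200 μM; final DMSO 0.5%) added to freshly diluted cells (3×10^3 cells/mL MX-1 and DLD-1, 6×10^3 cells/mL LNCap), triplicate wells. Cultured ~three doubling times (3 days MX-1, 4 days DLD-1/LNCap). CellTiter-Glo luminescence, 15 min room temperature; growth expressed as % of DMSO solvent control.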
A general note: ATP-based viability assays read luminescence as a measure of living cells.

Assay [1] deals with DLD-1 (colorectal adenocarcinoma). Put plainly: Cytotoxicity/growth inhibition assay, DLD-1. Particulars: DLD-1 cells, 4 days culture, CellTiter-Glo, 0.1-200 μM tested; read-out: IC50 (DLD-1). The gist of the method:
as §1

Assay [2] concerns LNCap (prostate carcinoma). The assay can be described thus: Cytotoxicity/growth inhibition assay, LNCap. The settings on record: LNCap cells, 4 days culture, CellTiter-Glo, 0.1-200 μM tested; read-out: IC50 (LNCap). The gist of the method: as §1

One may read the IC50 as the concentration that gives 50% inhibition. `O=P(OCCS(=O)(=O)c1ccccn1)(N(CCCl)CCCl)N(CCCl)CCCl` [Compound 124A]: the results for the IC50 (with MX-1 (breast carcinoma); in assay [1]; in assay [2]) were 7.2 µM, 6 µM and 15.5 µM, respectively.
With `O=P(OCCS(=O)(=O)c1ncnc2[nH]cnc12)(N(CCCl)CCCl)N(CCCl)CCCl` [Compound 125A], the IC50 in the assay with MX-1 (breast carcinoma) is 22.5 µM; in assay [1] it was 7.8 µM; in assay [2], 45.1 µM.
For `O=C(O)c1ncccc1S(=O)(=O)CCOP(=O)(N(CCCl)CCCl)N(CCCl)CCCl` [Compound 126A], the IC50 in the assay on MX-1 (breast carcinoma) is 20.3 µM; in assay [1], 6.7 µM; in assay [2] it was 126 µM.
Turning to `O=P(OCCS(=O)(=O)c1ncc2nc[nH]c2n1)(N(CCCl)CCCl)N(CCCl)CCCl` [Compound 127A], the IC50 in the assay on MX-1 (breast carcinoma) was 15.2 µM; in assay [1], 5.8 µM; in assay [2] it was at least 200 µM.
On to `Cc1cccc(CS(=O)(=O)CCOP(=O)(N(CCCl)CCCl)N(CCCl)CCCl)c1` [Compound 129A], for which the IC50 in the assay on MX-1 (breast carcinoma) came out at 7.1 µM; in assay [1] it was 5.4 µM; in assay [2], 16.3 µM.
Turning to `Cc1ccc(CS(=O)(=O)CCOP(=O)(N(CCCl)CCCl)N(CCCl)CCCl)cc1` [Compound 130A], the half-inhibitory concentration (IC50) in the assay on MX-1 (breast carcinoma) was 6.5 µM; in assay [1], 5.1 µM; in assay [2] it was 22 µM.
On to `O=P(OCCS(=O)(=O)Cc1ccc(Cl)cc1)(N(CCCl)CCCl)N(CCCl)CCCl` [Compound 131A], for which the IC50 in the assay on MX-1 (breast carcinoma) amounted to 5.2 µM; in assay [1], 3.6 µM; in assay [2], 6.9 µM.
For `O=P(OCCS(=O)(=O)Cc1ccc(F)cc1)(N(CCCl)CCCl)N(CCCl)CCCl` [Compound 132A], the results for the IC50 (with MX-1 (breast carcinoma); in assay [1]; in assay [2]) were 6.1 µM, 5 µM and 16.3 µM, respectively.
For `O=P(OCCS(=O)(=O)Cc1cccc(C(F)(F)F)c1)(N(CCCl)CCCl)N(CCCl)CCCl` [Compound 133A], the IC50 in the assay with MX-1 (breast carcinoma) amounted to 2.7 µM; in assay [1], 2.6 µM; in assay [2], 8.2 µM.
For the compound `O=P(OCCS(=O)(=O)Cc1ccc(Cl)c(Cl)c1)(N(CCCl)CCCl)N(CCCl)CCCl` [Compound 134A], the IC50 in the assay with MX-1 (breast carcinoma) was found to be 1.5 µM; in assay [1], 1.2 µM; in assay [2], 4.8 µM.
`O=P(OCCS(=O)(=O)Cc1ccc(Cl)cc1Cl)(N(CCCl)CCCl)N(CCCl)CCCl` [Compound 135A]: the values for the IC50 (in the assay with MX-1 (breast carcinoma); in assay [1]; in assay [2]) were 3.5 µM, 0.6 µM and 19.1 µM, respectively.
The matching figures for `O=P(OCCS(=O)(=O)Cc1ccccc1Cl)(N(CCCl)CCCl)N(CCCl)CCCl` [Compound 136A]: 2.8 µM, 1.7 µM and 21.4 µM.
Consider `CC(C)(C)c1ccc(CS(=O)(=O)CCOP(=O)(N(CCCl)CCCl)N(CCCl)CCCl)cc1` [Compound 137A], for which the IC50 in the assay on MX-1 (breast carcinoma) was found to be 1.7 µM; in assay [1], 0.8 µM; in assay [2], 22.3 µM.
With `O=[N+]([O-])c1cccc(CS(=O)(=O)CCOP(=O)(N(CCCl)CCCl)N(CCCl)CCCl)c1` [Compound 138A], the IC50 in the assay with MX-1 (breast carcinoma) amounted to 16.8 µM; in assay [1], 1.8 µM; in assay [2], 12 µM.
For `O=C(O)c1ccc(CS(=O)(=O)CCOP(=O)(N(CCCl)CCCl)N(CCCl)CCCl)cc1` [Compound 139A], the values for the IC50 (in the assay with MX-1 (breast carcinoma); in assay [1]; in assay [2]) were 25.3 µM, 9.3 µM and 82.1 µM, respectively.
The like results for `COC(=O)c1ccc(CS(=O)(=O)CCOP(=O)(N(CCCl)CCCl)N(CCCl)CCCl)cc1` [Compound 140A] were, in that order, 11.9 µM, 5.9 µM and 23.3 µM.
The matching figures for `Nc1cccc(CS(=O)(=O)CCOP(=O)(N(CCCl)CCCl)N(CCCl)CCCl)c1` [Compound 141A]: 17.3 µM, 12.9 µM and 45.9 µM.
In the case of `O=C(O)CCC(=O)Nc1cccc(CS(=O)(=O)CCOP(=O)(N(CCCl)CCCl)N(CCCl)CCCl)c1` [Compound 142A], the IC50 in the assay with MX-1 (breast carcinoma) is 22.5 µM; in assay [1], 18.1 µM; in assay [2], 114 µM.
Consider `NCC(=O)Nc1cccc(CS(=O)(=O)CCOP(=O)(N(CCCl)CCCl)N(CCCl)CCCl)c1` [Compound 143A], for which the IC50 in the assay with MX-1 (breast carcinoma) was found to be 15.9 µM; in assay [1], 10.9 µM; in assay [2] it was 110 µM.
Regarding `CC(C)(C)OC(=O)NCC(=O)Nc1cccc(CS(=O)(=O)CCOP(=O)(N(CCCl)CCCl)N(CCCl)CCCl)c1` [Compound 144A], the IC50 in the assay on MX-1 (breast carcinoma) was found to be 5.7 µM; in assay [1] it was 4 µM; in assay [2] it was 17.9 µM.
The matching figures for `N[C@@H](CCC(=O)Nc1cccc(CS(=O)(=O)CCOP(=O)(N(CCCl)CCCl)N(CCCl)CCCl)c1)C(=O)O` [Compound 147A]: 12.2 µM, 11.1 µM and 63.9 µM.
As for `N#Cc1ccc(CS(=O)(=O)CCOP(=O)(N(CCCl)CCCl)N(CCCl)CCCl)cc1` [Compound 153A], the IC50 in the assay with MX-1 (breast carcinoma) worked out at 3 µM; in assay [1], 1.8 µM; in assay [2] it was 6.9 µM.
The like results for `O=C(c1ccc(CS(=O)(=O)CCOP(=O)(N(CCCl)CCCl)N(CCCl)CCCl)cc1)N1CCOCC1` [Compound 154A] were, in that order, 5.5 µM, 5.8 µM and 26.2 µM.
In the case of `CN(C)C(=O)c1ccc(CS(=O)(=O)CCOP(=O)(N(CCCl)CCCl)N(CCCl)CCCl)cc1` [Compound 155A], the IC50 in the assay with MX-1 (breast carcinoma) worked out at 2.6 µM; in assay [1] it was 10.7 µM; in assay [2] it was 42.4 µM.
The like results for `O=C(c1ccc(CS(=O)(=O)CCOP(=O)(N(CCCl)CCCl)N(CCCl)CCCl)cc1)N1CCCC1` [Compound 156A] were, in that order, 4.8 µM, 3.5 µM and 31.4 µM.
The like results for `CCN(CC)C(=O)c1ccc(CS(=O)(=O)CCOP(=O)(N(CCCl)CCCl)N(CCCl)CCCl)cc1` [Compound 157A] were, in that order, 3.1 µM, 2.3 µM and 29.6 µM.
`CN(CCO)C(=O)c1ccc(CS(=O)(=O)CCOP(=O)(N(CCCl)CCCl)N(CCCl)CCCl)cc1` [Compound 158A]: the results for the half-inhibitory concentration (IC50) (with MX-1 (breast carcinoma); in assay [1]; in assay [2]) were 35.4 µM, 17.5 µM and 85.2 µM, respectively.
The like results for `O=C(c1ccc(CS(=O)(=O)CCOP(=O)(N(CCCl)CCCl)N(CCCl)CCCl)cc1)N1CCCCC1` [Compound 159A] were, in that order, 5.3 µM, 3.5 µM and 24.4 µM.
For `O=C(NCCO)c1ccc(CS(=O)(=O)CCOP(=O)(N(CCCl)CCCl)N(CCCl)CCCl)cc1` [Compound 160A], the IC50 in the assay with MX-1 (breast carcinoma) was found to be 33.2 µM; in assay [1], 13.9 µM; in assay [2], 104 µM.
Regarding `O=C(NCc1ccccc1)c1ccc(CS(=O)(=O)CCOP(=O)(N(CCCl)CCCl)N(CCCl)CCCl)cc1` [Compound 161A], the results for the IC50 (with MX-1 (breast carcinoma); in assay [1]; in assay [2]) were 7.4 µM, 3.7 µM and 11.7 µM, respectively.
Take `NC(=O)c1ccc(CS(=O)(=O)CCOP(=O)(N(CCCl)CCCl)N(CCCl)CCCl)cc1` [Compound 162A]: the IC50 worked out at 7.1 µM in the assay with MX-1 (breast carcinoma), 4.7 µM in assay [1] and 55.1 µM in assay [2].
As for `CCNC(=O)c1ccc(CS(=O)(=O)CCOP(=O)(N(CCCl)CCCl)N(CCCl)CCCl)cc1` [Compound 163A], the results for the IC50 (with MX-1 (breast carcinoma); in assay [1]; in assay [2]) were 4.8 µM, 4.8 µM and 28.5 µM, respectively.
As for `N#CCNC(=O)c1ccc(CS(=O)(=O)CCOP(=O)(N(CCCl)CCCl)N(CCCl)CCCl)cc1` [Compound 164A], the IC50 was determined as 10.7 µM in the assay with MX-1 (breast carcinoma), 5.8 µM in assay [1] and 45.9 µM in assay [2].
Take `O=C(c1ccc(CS(=O)(=O)CCOP(=O)(N(CCCl)CCCl)N(CCCl)CCCl)cc1)N1CCC(O)C1` (stereo not drawn) [Compound 165A]: the figures for the half-maximal inhibitory concentration (IC50) (with MX-1 (breast carcinoma); in assay [1]; in assay [2]) were 21.9 µM, 8 µM and 114 µM, respectively.
Turning to `O=C(c1ccc(CS(=O)(=O)CCOP(=O)(N(CCCl)CCCl)N(CCCl)CCCl)cc1)N1CCC(O)CC1` [Compound 166A], the IC50 with MX-1 (breast carcinoma) was found to be 20.5 µM; in assay [1], 6.3 µM; in assay [2], 90.2 µM.
As for `CNC(=O)c1ccc(CS(=O)(=O)CCOP(=O)(N(CCCl)CCCl)N(CCCl)CCCl)cc1` [Compound 168A], the IC50 with MX-1 (breast carcinoma) came out at 7.9 µM; in assay [1] it was 5.7 µM; in assay [2], 24.2 µM.
`O=C(c1ccc(CS(=O)(=O)CCOP(=O)(N(CCCl)CCCl)N(CCCl)CCCl)cc1)N(CCO)CCO` [Compound 169A]: the IC50 was found to be 34.5 µM in the assay on MX-1 (breast carcinoma), 7.6 µM in assay [1] and 144 µM in assay [2].
Turning to `NC(=O)C1CCN(C(=O)c2ccc(CS(=O)(=O)CCOP(=O)(N(CCCl)CCCl)N(CCCl)CCCl)cc2)CC1` [Compound 170A], the IC50 with MX-1 (breast carcinoma) was 31.4 µM; in assay [1] it was 10.8 µM; in assay [2] it was at least 200 µM.
Consider `O=C(NCc1cccnc1)c1ccc(CS(=O)(=O)CCOP(=O)(N(CCCl)CCCl)N(CCCl)CCCl)cc1` [Compound 174A], for which the values for the IC50 (with MX-1 (breast carcinoma); in assay [1]; in assay [2]) were 18.8 µM, 14.3 µM and 55.8 µM, respectively.
The like results for `O=C(NCCCN1CCOCC1)c1ccc(CS(=O)(=O)CCOP(=O)(N(CCCl)CCCl)N(CCCl)CCCl)cc1` [Compound 175A] were, in that order, 18.2 µM, 10.9 µM and 65.1 µM.
With `O=C(c1ccc(CS(=O)(=O)CCOP(=O)(N(CCCl)CCCl)N(CCCl)CCCl)cc1)N1CCN(c2ccccn2)CC1` [Compound 176A], the figures for the IC50 (in the assay on MX-1 (breast carcinoma); in assay [1]; in assay [2]) were 6.4 µM, 4.9 µM and 29 µM, respectively.
